Source: publication PMC6327993, “Synthesis carbonic anhydrase enzyme inhibition and antioxidant activity of novel benzothiazole derivatives incorporating glycine, methionine, alanine, and phenylalanine moieties” (Journal of Enzyme Inhibition and Medicinal Chemistry, 2018)

What was measured:
hCA I = hCA I (Homo sapiens, UniProt P00915); assay: stopped flow CO2 hydrase assay, hCA I; assay type: biochemical; settings: mean from three different assays, errors ±5–10%
Method: (§1) An applied photophysics stopped-flow instrument has been used for assaying the CA catalysed CO2 hydration activity by using method of Khalifah[34]. Phenol red (at a concentration of 0.2 mM) has been used as an indicator, working at the absorbance maximum of 557 nm, with 20 mM HEPES (pH 7.5) as buffer, and 20 mM Na2SO4 (for maintaining constant the ionic strength), following the initial rates of the CA-catalysed CO2 hydration reaction for a period of 10–100 s. The CO2 concentrations ranged from 1.7 to 17 mM for the determination of the kinetic parameters and inhibition constants. […] The uncatalysed rates were determined in the same manner and subtracted from the total observed rates. Stock solutions of inhibitor (0.1 mM) were prepared in distilled–deionised water and dilutions up to 0.01 nM were done thereafter with the assay buffer. Inhibitor and enzyme solutions were preincubated together for 15 min at room temperature prior to assay, in order to allow the formation of the E–I complex. The inhibition constants were obtained by non-linear least-square methods using PRISM (www.graphpad.com), and non-linear least squares methods, values representing the mean of at least three different determinations, as described earlier by us[35–39].

hCA II = hCA II (Homo sapiens, UniProt P00918); assay: stopped flow CO2 hydrase assay, hCA II; assay type: biochemical; settings: mean from three different assays, errors ±5–10%, read-out: KI hCAII
Method: as §1

hCA V = hCA V (Homo sapiens, UniProt P35218); assay: stopped flow CO2 hydrase assay, hCA V; assay type: biochemical; settings: mean from three different assays, errors ±5–10%
hCA V, sequence (P35218 39-305): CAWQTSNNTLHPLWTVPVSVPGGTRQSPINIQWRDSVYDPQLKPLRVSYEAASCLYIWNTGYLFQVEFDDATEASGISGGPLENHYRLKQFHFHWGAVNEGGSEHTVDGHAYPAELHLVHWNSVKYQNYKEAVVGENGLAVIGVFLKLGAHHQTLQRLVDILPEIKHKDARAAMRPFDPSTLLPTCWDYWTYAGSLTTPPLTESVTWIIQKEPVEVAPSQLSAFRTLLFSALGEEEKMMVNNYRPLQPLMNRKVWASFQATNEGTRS
Method: as §1

hCA XIII = hCA XIII (Homo sapiens, UniProt Q8N1Q1); assay: stopped flow CO2 hydrase assay, hCA XIII; assay type: biochemical; settings: mean from three different assays, errors ±5–10%
hCA XIII, sequence (Q8N1Q1 whole entry): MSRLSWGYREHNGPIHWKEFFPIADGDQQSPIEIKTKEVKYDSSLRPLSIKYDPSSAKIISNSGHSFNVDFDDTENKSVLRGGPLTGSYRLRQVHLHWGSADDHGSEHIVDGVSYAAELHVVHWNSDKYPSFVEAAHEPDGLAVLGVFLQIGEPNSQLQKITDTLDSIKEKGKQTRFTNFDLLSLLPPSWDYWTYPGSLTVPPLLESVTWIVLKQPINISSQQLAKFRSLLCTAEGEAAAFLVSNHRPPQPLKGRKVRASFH
Method: as §1

[1] = DPPH radical scavenging activity
Method: Antioxidant activity was determined based on the ability of the antioxidants to act as radical scavengers towards the stable free radical, 1,1-diphenyl-2-picrylhydrazyl (DPPH). As detailed by Yang et al.[40], 1 ml of antioxidant solution (solubilised in ethanol) was added to 3 ml of a 0.1 mM ethanolic solution of DPPH. After 30 min at ambient temperature in darkness, absorbance readings were taken at 517 nm. Inhibition (%) was calculated using the equation [1–(As−Ao)/Ab]×100 where As is the absorbance reading for samples containing antioxidant, Ao is the absorbance of the antioxidant in pure methanol and Ab corresponded to the absorbance of the DPPH solution.

hCA I, sequence (P00915 whole entry): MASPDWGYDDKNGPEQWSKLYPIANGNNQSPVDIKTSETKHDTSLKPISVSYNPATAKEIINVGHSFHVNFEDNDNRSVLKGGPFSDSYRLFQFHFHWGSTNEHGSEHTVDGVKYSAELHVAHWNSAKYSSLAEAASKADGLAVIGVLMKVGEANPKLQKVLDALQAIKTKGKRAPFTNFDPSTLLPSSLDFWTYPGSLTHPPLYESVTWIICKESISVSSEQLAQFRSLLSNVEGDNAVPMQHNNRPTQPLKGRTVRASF

Ki (hCA I)	Ki (hCA II)	Ki (hCA V)	Ki (hCA XIII)	melting point	Compound	Antioxidant activity, % ([1]; 12.5 μg/ml)	Antioxidant activity, % ([1]; 25 μg/ml)	Antioxidant activity, % ([1]; 37.5 μg/ml)	Antioxidant activity, % ([1]; 62.5 μg/ml)	Antioxidant activity, % ([1]; 125 μg/ml)
> 100 µM	88.1 µM	74.5 µM	> 100 µM	218 to 219 °C	Cc1cccc2sc(NC(=O)CNC(=O)OCC3c4ccccc4-c4ccccc43)nc12 [Compound 11, (9H-Fluoren-9-yl)methyl (2-((4-methylbenzo[d]thiazol-2-yl)amino)-2-oxoethyl)carbamate]	5%	6.7%	6.9%	7.1%	8.2%
> 100 µM	37 µM	> 100 µM	> 100 µM	227 to 228 °C	Cc1ccc2nc(-c3ccc(NC(=O)C(Cc4ccccc4)NC(=O)OCc4ccccc4)cc3)sc2c1 (centres unmarked) [Compound 12, Benzyl (1-((4–(6-methylbenzo[d]thiazol-2-yl)phenyl)amino)-1-oxo-3-phenylpropan-2-yl)carbamate]	0%	3%	3.4%	5.8%	6.1%
> 100 µM	> 100 µM	> 100 µM	> 100 µM		Tert-butyl (4–(6-methylbenzo[d]thiazol-2-yl)-3-oxo-1-phenylbutan-2-yl)carbamate [Compound 4]	0%	5.7%	5.8%	9.6%	
89.9 µM	> 100 µM	9 µM	> 100 µM		Benzyl (3–(6-(methylsulfonyl)benzo[d]thiazol-2-yl)-2-oxopropyl)carbamate [Compound 8]	0%	2.1%	6.6%	19.2%	20.7%
> 100 µM	> 100 µM	> 100 µM	> 100 µM		Benzyl (4–(6-ethoxybenzo[d]thiazol-2-yl)-3-oxo-1-phenylbutan-2-yl)carbamate [Compound 6]	11.0%	14.0%	23.0%	32.0%	37.0%
> 100 µM	39.1 µM	41.2 µM	84.9 µM	200 to 201 °C	CSCCC(NC(=O)OCc1ccccc1)C(=O)Nc1ccc(-c2nc3ccc(C)cc3s2)cc1 (centres unmarked) [Compound 13, Benzyl (1-((4–(6-methylbenzo[d]thiazol-2-yl)phenyl)amino)-4-(methylthio)-1-oxobutan-2-yl)carbamate]	5%	6.7%	6.1%	7.1%	8.2%
7.1 µM	> 100 µM	2.9 µM	> 100 µM		CS(=O)(=O)c1ccc2nc(NC(=O)CNC(=O)OCC3c4ccccc4-c4ccccc43)sc2c1 [Compound 10, (9H-Fluoren-9-yl)methyl(2-((6-(methylsulfonyl)benzo[d]thiazol-2-yl)amino)-2-oxoethyl)carbamate]	0%	0%	22.5%	23.1%	24.5%
90.5 µM	50.4 µM	86.9 µM	> 100 µM		Tert-butyl (4–(6-methylbenzo[d]thiazol-2-yl)-3-oxobutan-2-yl)carbamate [Compound 3]	3.3%	3.4%	5.3%	7.5%	7.7%

Continued, compound first:

Compound	Ki (hCA I)	Ki (hCA II)	Ki (hCA V)	Ki (hCA XIII)	melting point	Antioxidant activity, % ([1]; 12.5 μg/ml)	Antioxidant activity, % ([1]; 25 μg/ml)	Antioxidant activity, % ([1]; 37.5 μg/ml)	Antioxidant activity, % ([1]; 62.5 μg/ml)	Antioxidant activity, % ([1]; 125 μg/ml)
COc1ccc(O)c(C(C)(C)C)c1 [BHA, reference compound]						61.1%	63.0%	67.5%	71.0%	72.4%
Cc1c(C)c2c(c(C)c1O)CC[C@@](C)(CCC[C@H](C)CCC[C@H](C)CCCC(C)C)O2 [α-Toc., α-tocopherol, reference compound]						62.9%	63.4%	68.4%	72.8%	74.0%
CCOc1ccc2nc(NC(=O)CNC(=O)OC(C)(C)C)sc2c1 [Compound 7]	> 100 µM	> 100 µM	60 µM	> 100 µM	171 to 172 °C	13.0%	15.0%	22.5%	24.8%	28.3%
CCOc1ccc2nc(NC(=O)CNC(=O)OCc3ccccc3)sc2c1 [Compound 5]	> 100 µM	82.3 µM	> 100 µM	> 100 µM	214 to 215 °C	12.0%	15.0%	25.0%	32.0%	38.0%
Cc1ccc2nc(NC(=O)CNC(=O)OCC3c4ccccc4-c4ccccc43)sc2c1 [Compound 9, (9H-Fluoren-9-yl)methyl (2-((6-methylbenzo[d]thiazol-2-yl)amino)-2-oxoethyl)carbamate]	71.9 µM	> 100 µM	7.3 µM	> 100 µM	220 to 221 °C	4%	4.6%	5.3%	5.8%	6.4%
Cc1ccc2nc(NC(=O)CNC(=O)OC(C)(C)C)sc2c1 [Compound 2]	> 100 µM	74.8 µM	65.5 µM	> 100 µM	212 to 213 °C	0%	0%	3.9%	4.6%	6.1%
Cc1ccc2nc(NC(=O)CNC(=O)OCc3ccccc3)sc2c1 [Compound 1]	4.3 µM	32.1 µM	4.3 µM	94.6 µM	213 to 214 °C	0%	0%	0%	11.4%	12.5%
